Patent US6753345B2, “7-hexanolytaxol and methods for preparing the same” (Hauser, Inc., priority 1998, dated 2004)
Converted amounts (≈) assume the structure as drawn. Where two headings read alike, the source gives them in different places.

What was measured:
KM12 = test: SRB cytotoxicity screening assay (Colon Cancer)
TK-10 = test: SRB cytotoxicity screening assay (Renal Cancer)
MCF7/ADR-RES = test: SRB cytotoxicity screening assay (Breast Cancer)
CCRF-CEM = test: SRB cytotoxicity screening assay (Leukemia); conditions: for Log10 TGI: CCRF-CEM (Leukemia), PG=0, 48 hour incubation
UO-31 = test: SRB cytotoxicity screening assay (Renal Cancer); conditions: Homo sapiens, UO-31, 48 h
SF-539 = test: SRB cytotoxicity screening assay (CNS Cancer); conditions: Homo sapiens, SF-539, 48 h, read-out: Log10 GI50 (converted)
RXF-393 = test: SRB cytotoxicity screening assay (Renal Cancer)
SNB-19 = test: SRB cytotoxicity screening assay (CNS Cancer)
DU-145 = test: SRB cytotoxicity screening assay (Prostate Cancer)
HT29 = test: SRB cytotoxicity screening assay (Colon Cancer); conditions: Homo sapiens, HT-29, 48 h, read-out: Log10 LC50 (converted)
HCC-2998 = test: SRB cytotoxicity screening assay (Colon Cancer); conditions: HCC-2998 (Colon Cancer); PG=0; 48 hour incubation
MDA-MB-231/ATCC = test: SRB cytotoxicity screening assay (Breast Cancer)
SW-620 = test: SRB cytotoxicity screening assay (Colon Cancer)
NCI-H460 = test: SRB cytotoxicity screening assay (Non-Small Cell Lung Cancer); conditions: NCI-H460 (Non-Small Cell Lung Cancer); PG=0; 48 hour incubation
LOX-IMVI = LOX-IMVI (Melanoma); PG=0; 48 hour incubation
26 cell lines = test: 26 cell line growth inhibition screen, sulforhodamine stain; type: cell-based; conditions: 26 cell lines, 48 hour drug treatment, sulforhodamine stain
NCI-H322M [1] = test: cells; conditions: Homo sapiens, 48 h
MALME-3M = test: SRB cytotoxicity screening assay (Melanoma); conditions: MALME-3M (Melanoma); PG=0; 48 hour incubation
MCF7 = test: SRB cytotoxicity screening assay (Breast Cancer); conditions: Homo sapiens, MCF7, 48 h
MOLT-4 = test: SRB cytotoxicity screening assay (Leukemia)
PC-3 = test: SRB cytotoxicity screening assay (Prostate Cancer)
NCI-H322M [2] = conditions: NCI-H322M (Non-Small Cell Lung Cancer); PG=0; 48 hour incubation
OVCAR-3 = test: SRB cytotoxicity screening assay (Ovarian)
RPMI-8226 = test: SRB cytotoxicity screening assay (Leukemia)
[3] = read-out: Log10 GI50 (converted)
[4] = read-out: Log10 LC50 (converted)

## CC(=O)O[C@H]1C(=O)[C@@]2(C)[C@H]([C@H](OC(=O)c3ccccc3)[C@]3(O)C[C@H](OC(=O)[C@H](O)[C@@H](NC(=O)c4ccccc4)c4ccccc4)C(C)=C1C3(C)C)[C@]1(OC(C)=O)CO[C@@H]1C[C@@H]2O [Paclitaxel, paclitaxel, reference compound]
KM12; Homo sapiens, KM12, 48 h, read-out: Log10 GI50 (converted)
  GI50: 0.00372 nM
KM12; KM12 (Colon Cancer), PG=0, 48 hour incubation
  Log10 TGI: −4.36 molar
TK-10; Homo sapiens, TK-10, 48 h, read-out: Log10 GI50 (converted)
  GI50: 12.9 nM
TK-10; Homo sapiens, TK-10, 48 h, read-out: Log10 LC50 (converted)
  CC50: > 100000 nM
TK-10; TK-10 (Renal Cancer), PG=0, 48 hour incubation
  Log10 TGI: >−4.00 molar
MCF7/ADR-RES; Homo sapiens, MCF7, 48 h, read-out: Log10 GI50 (converted)
  GI50: 3.31 nM
MCF7/ADR-RES; Homo sapiens, MCF7, 48 h, read-out: Log10 LC50 (converted)
  CC50: > 100000 nM
MCF7/ADR-RES; MCF7/ADR-RES (Breast Cancer), PG=0, 48 hour incubation
  Log10 TGI: >−4.00 molar
CCRF-CEM
  Log10 TGI: >−4.00 molar
CCRF-CEM; listed as paclitaxel
  Log10 TGI: greater than −4.00 molar
CCRF-CEM; Homo sapiens, CCRF-CEM, 48 h, read-out: Log10 GI50 (converted)
  GI50: 0.00245 nM
UO-31; [3]
  GI50: 813 nM
UO-31; [4]
  CC50: > 100000 nM
SF-539
  GI50: 0.00813 nM
RXF-393; Homo sapiens, RXF 393, 48 h, read-out: Log10 GI50 (converted)
  GI50: 4.79 nM
RXF-393; Homo sapiens, RXF 393, 48 h, read-out: Log10 LC50 (converted)
  CC50: 35500 nM
RXF-393; RXF-393 (Renal Cancer), PG=0, 48 hour incubation
  Log10 TGI: −4.90 molar
SNB-19; Homo sapiens, SNB-19, 48 h, read-out: Log10 GI50 (converted)
  GI50: 1.05 nM
SNB-19; Homo sapiens, SNB-19, 48 h, read-out: Log10 LC50 (converted)
  CC50: > 100000 nM
SNB-19; SNB-19 (CNS Cancer), PG=0, 48 hour incubation
  Log10 TGI: >−4.00 molar
DU-145; DU-145 (Prostate Cancer), PG=0, 48 hour incubation
  Log10 TGI: >−4.00 molar
DU-145; Homo sapiens, DU-145, 48 h, read-out: Log10 GI50 (converted)
  GI50: 0.417 nM
DU-145; Homo sapiens, DU-145, 48 h, read-out: Log10 LC50 (converted)
  CC50: > 100000 nM
HT29
  CC50: 33100 nM
HCC-2998
  Log10 TGI: −4.77 molar
MDA-MB-231/ATCC; Homo sapiens, MDA-MB-231, 48 h, read-out: Log10 GI50 (converted)
  GI50: 2.88 nM
MDA-MB-231/ATCC; Homo sapiens, MDA-MB-231, 48 h, read-out: Log10 LC50 (converted)
  CC50: 51300 nM
MDA-MB-231/ATCC; MDA-MB-231/ATCC (Breast Cancer), PG=0, 48 hour incubation
  Log10 TGI: −4.84 molar
SW-620; Homo sapiens, SW-620, 48 h, read-out: Log10 GI50 (converted)
  GI50: 0.00251 nM
SW-620; SW-620 (Colon Cancer), PG=0, 48 hour incubation
  Log10 TGI: >−4.00 molar
NCI-H460
  Log10 TGI: −4.92 molar
LOX-IMVI
  Log10 TGI: −4.65 molar
26 cell lines; read-out: Mean IC50 (26 cell line Mean Growth inhibition IC50 value)
  IC50: 0.02 µg/mL (≈ 0.0234 µM)
26 cell lines; read-out: Min IC50 (lowest observed IC50 value in 26 cell line screen)
  IC50: 0.001 µg/mL (≈ 0.00117 µM)
NCI-H322M [1]; [3]
  GI50: 0.0759 nM
NCI-H322M [1]; [4]
  CC50: > 100000 nM
MALME-3M
  Log10 TGI: −4.46 molar
MCF7; [3]
  GI50: 0.00204 nM
MCF7; [4]
  CC50: > 100000 nM
MOLT-4; Homo sapiens, MOLT-4, 48 h, read-out: Log10 GI50 (converted)
  GI50: 0.00851 nM
MOLT-4; Homo sapiens, MOLT-4, 48 h, read-out: Log10 LC50 (converted)
  CC50: > 100000 nM
MOLT-4; MOLT-4 (Leukemia), PG=0, 48 hour incubation
  Log10 TGI: >−4.00 molar
PC-3; Homo sapiens, PC-3, 48 h, read-out: Log10 GI50 (converted)
  GI50: 0.0141 nM
PC-3; Homo sapiens, PC-3, 48 h, read-out: Log10 LC50 (converted)
  CC50: > 100000 nM
PC-3; PC-3 (Prostate Cancer), PG=0, 48 hour incubation
  Log10 TGI: >−4.00 molar
NCI-H322M [2]
  Log10 TGI: −4.46 molar
OVCAR-3; Homo sapiens, OVCAR-3, 48 h, read-out: Log10 GI50 (converted)
  GI50: 0.0398 nM
OVCAR-3; OVCAR-3 (Ovarian), PG=0, 48 hour incubation
  Log10 TGI: −4.55 molar
RPMI-8226; Homo sapiens, RPMI-8226, 48 h, read-out: Log10 LC50 (converted)
  CC50: > 100000 nM
RPMI-8226; RPMI-8226 (Leukemia), PG=0, 48 hour incubation
  Log10 TGI: >−4.00 molar
